Results from PMC3049140, “Mechanism of acetaldehyde-induced deactivation of microbial lipases” (BMC Biochemistry, 2011).

How the values were obtained:
Format in all cases: biochemical
[1] = target: T1, BSL-B (Bacillus subtilis lipase B) (Bacillus subtilis, UniProt Q79F14); assay: residual hydrolytic activity, p-nitrophenylpalmitate assay; conditions: read-out: residual activity at 50 mM
T1 construct: gene estB
T1 sequence (Q79F14 29-210): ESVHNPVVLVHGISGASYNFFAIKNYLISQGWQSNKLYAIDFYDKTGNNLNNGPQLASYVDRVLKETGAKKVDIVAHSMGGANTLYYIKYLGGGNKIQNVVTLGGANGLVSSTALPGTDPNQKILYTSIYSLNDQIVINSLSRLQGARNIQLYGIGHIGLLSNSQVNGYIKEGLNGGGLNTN

[2] = target: T2, BSL-A (Bacillus subtilis lipase A) (Bacillus subtilis, UniProt P37957); assay: p-nitrophenylpalmitate hydrolysis assay
T2 construct: gene estA
T2 sequence (P37957 32-212): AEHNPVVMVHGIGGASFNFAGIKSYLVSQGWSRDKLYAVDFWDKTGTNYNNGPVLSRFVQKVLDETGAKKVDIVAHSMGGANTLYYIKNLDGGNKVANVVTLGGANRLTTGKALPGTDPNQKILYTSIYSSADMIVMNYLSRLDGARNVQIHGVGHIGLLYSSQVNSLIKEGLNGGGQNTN

[3] = target: T1, BSL-B (Bacillus subtilis lipase B); assay: p-nitrophenylpalmitate hydrolysis assay

Structure (SMILES)	remaining activity at 50000 µM [1]	p-nitrophenylpalmitate hydrolysis assay [2]	p-nitrophenylpalmitate hydrolysis assay [3]
CC=CC=CC=O [2,4-hexadienal]	19%		
CCCCCCCCCCCCCCCC(=O)Oc1ccc([N+](=O)[O-])cc1 [pNPP, p-nitrophenylpalmitate]		assayed for residual activity using the p-nitrophenylpalmitate assay	residual enzyme activity determined with p-nitrophenylpalmitate as the substrate
